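Step 1: Grow cells in 96-well plates. Step 2: Expose to compound for 48 hours at 5 concentrations. Step 3: Interpolate endpoints linearly; if unreached, use highest concentration. The concentration for full growth arrest is given as TGI.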
test system: CAKI-1 renal; assay: NCI tumour cell line growth inhibition, 48 h

SMILES	TGI [µM]
COc1cc(C(=O)NNC(=O)c2cc(Br)ccc2NC(=O)c2cccs2)cc(OC)c1OC	> 100
C[N+]12CCCCC1C(COc1cccc3cccnc13)CCC2 (stereo unspecified)	> 100
Cc1ccc(S(=O)(=O)NC(=O)NCc2ccc(S(N)(=O)=O)cc2)cc1	> 100
NC(=O)NC1NC(=O)NC1=O (stereo unspecified)	> 100
CCN(CCCl)c1cc(CN(C)C)cc(NC(=O)c2ccc(C(=O)Nc3cc(CN(C)C)cc(N(CC)CCCl)c3)cc2)c1	1.74
C=CCN1C(=O)/C(=C/c2ccc(Cl)cc2)N=C1SC/C=C/C	> 100
CC12Nc3c(Cl)cc(Cl)cc3N1C(=O)c1ccccc12 (stereo unspecified)	> 100
Nc1cc(Cl)cc2cc(Cl)cnc12	> 100
COC(=O)/C(C)=N/NC(=S)SC	> 100
O=C(/C=C/c1cccc([N+](=O)[O-])c1)N1CCN(CCOC(c2ccccc2)c2ccccc2)CC1	> 100
CC(=O)OCC1OC(NC(=S)Nn2c(=O)[nH]c3ccccc3c2=O)C(OC(C)=O)C(OC(C)=O)C1OC(C)=O (stereo unspecified)	> 100
Cc1ccc2c(c1)C(=O)C1(C2)Cc2c(C)cccc2C1=O (stereo unspecified)	> 100
CC1=NN(c2cccc(S(=O)(=O)O)c2)C2(C1)C(Cl)C(=O)N2c1nc2ccccc2s1 (stereo unspecified)	8.48
C/C(Cl)=N/OC(=O)Nc1ccc(F)c([N+](=O)[O-])c1	3.69
COC(=O)C1C2OC(C)(C)OC2CN1S(=O)(=O)c1ccc(C)cc1 (stereo unspecified)	> 100
COc1ccc(CNc2ccn(C3OC(CO)C(O)C3O)c(=O)n2)cc1 (stereo unspecified)	> 100
O=C1CSC(c2ccccc2)N1c1nc2cc3sc(N4C(=O)CSC4c4ccccc4)nc3cc2s1 (stereo unspecified)	> 100
C[C@]12CCC(O)CC1=CC[C@@H]1[C@@H]2CC[C@]2(C)C(O)[C@H](n3ccnc3)C[C@@H]12 (stereo partly specified)	> 100
O=C(CC(O)(C(F)(F)F)C(F)(F)F)C(c1ccccc1)C(O)(C(F)(F)F)C(F)(F)F (stereo unspecified)	> 100
CCOC(=O)/C(C#N)=C/Nc1c(C)n(C)n(-c2ccccc2)c1=O	> 100

test system: HCT-116 colon; assay: NCI tumour cell line growth inhibition, 48 h

SMILES	TGI [µM]
COc1cc(C(=O)NNC(=O)c2cc(Br)ccc2NC(=O)c2cccs2)cc(OC)c1OC	51.5
C[N+]12CCCCC1C(COc1cccc3cccnc13)CCC2 (stereo unspecified)	> 100
Cc1ccc(S(=O)(=O)NC(=O)NCc2ccc(S(N)(=O)=O)cc2)cc1	> 100
NC(=O)NC1NC(=O)NC1=O (stereo unspecified)	> 100
CCN(CCCl)c1cc(CN(C)C)cc(NC(=O)c2ccc(C(=O)Nc3cc(CN(C)C)cc(N(CC)CCCl)c3)cc2)c1	1.06
C=CCN1C(=O)/C(=C/c2ccc(Cl)cc2)N=C1SC/C=C/C	> 100
CC12Nc3c(Cl)cc(Cl)cc3N1C(=O)c1ccccc12 (stereo unspecified)	> 100
Nc1cc(Cl)cc2cc(Cl)cnc12	> 100
COC(=O)/C(C)=N/NC(=S)SC	98.5
O=C(/C=C/c1cccc([N+](=O)[O-])c1)N1CCN(CCOC(c2ccccc2)c2ccccc2)CC1	51.8
CC(=O)OCC1OC(NC(=S)Nn2c(=O)[nH]c3ccccc3c2=O)C(OC(C)=O)C(OC(C)=O)C1OC(C)=O (stereo unspecified)	> 100
Cc1ccc2c(c1)C(=O)C1(C2)Cc2c(C)cccc2C1=O (stereo unspecified)	> 100
CC1=NN(c2cccc(S(=O)(=O)O)c2)C2(C1)C(Cl)C(=O)N2c1nc2ccccc2s1 (stereo unspecified)	20.4
C/C(Cl)=N/OC(=O)Nc1ccc(F)c([N+](=O)[O-])c1	> 30.8
COC(=O)C1C2OC(C)(C)OC2CN1S(=O)(=O)c1ccc(C)cc1 (stereo unspecified)	> 100
COc1ccc(CNc2ccn(C3OC(CO)C(O)C3O)c(=O)n2)cc1 (stereo unspecified)	> 100
O=C1CSC(c2ccccc2)N1c1nc2cc3sc(N4C(=O)CSC4c4ccccc4)nc3cc2s1 (stereo unspecified)	> 100
C[C@]12CCC(O)CC1=CC[C@@H]1[C@@H]2CC[C@]2(C)C(O)[C@H](n3ccnc3)C[C@@H]12 (stereo partly specified)	> 100
O=C(CC(O)(C(F)(F)F)C(F)(F)F)C(c1ccccc1)C(O)(C(F)(F)F)C(F)(F)F (stereo unspecified)	> 100
CCOC(=O)/C(C#N)=C/Nc1c(C)n(C)n(-c2ccccc2)c1=O	> 100

test system: HCT-15 colon; assay: NCI tumour cell line growth inhibition, 48 h

SMILES	TGI [µM]
COc1cc(C(=O)NNC(=O)c2cc(Br)ccc2NC(=O)c2cccs2)cc(OC)c1OC	62.3
C[N+]12CCCCC1C(COc1cccc3cccnc13)CCC2 (stereo unspecified)	> 100
Cc1ccc(S(=O)(=O)NC(=O)NCc2ccc(S(N)(=O)=O)cc2)cc1	> 100
NC(=O)NC1NC(=O)NC1=O (stereo unspecified)	> 100
CCN(CCCl)c1cc(CN(C)C)cc(NC(=O)c2ccc(C(=O)Nc3cc(CN(C)C)cc(N(CC)CCCl)c3)cc2)c1	29.5
C=CCN1C(=O)/C(=C/c2ccc(Cl)cc2)N=C1SC/C=C/C	> 100
